Article PMC11054638, “Transport of Non-Steroidal Anti-Inflammatory Drugs across an Oral Mucosa Epithelium In Vitro Model” (Pharmaceutics, 2024)
Where two headings read alike, the source gives them in different places.

How the values were obtained:
TR146 cell layers [1] = test system: TR146 cell layers
TR146 cell layers [2] = assay: TEER after 48 h inflammation study; format: cell-based, human; details: 48 h treatment; ibuprofen 100 µM; cytokines 100 ng/mL each
[3] = test system: JAK1, TRAF2 and RELA mRNA in TR146 cells; assay: qPCR of JAK1, TRAF2 and RELA after inflammation study; format: cell-based, human; details: 48 h
Experimental: ® were seeded with cells as described above. […] Prior to treating cells with prepared DMEM solutions, TEER was measured in cultivation media DMEM supplemented with 1% Penicillin/Streptomycin and 10% Fetal Calf Serum. Subsequently, cell layers and blanks were washed with DMEM (without supplements) twice on the apical and basolateral compartment, followed by TEER measurements in DMEM. Media of cells were replaced with previously prepared DMEM solutions. Control media was applied on the blanks. After 48 h treatment at 37 °C, 5% CO2 and 95% humidity TEER was measured. […] Media were immediately collected and measured for the RFU content using the EnSpire as described above. Afterwards, media were stored at -20 °C until further usage. […] For qPCR, samples were analysed as triplicates using the LightCycler480 II (Roche) with the program described in Lin et al. with primers for 18SrRNA (5'-3' forward: [NT], 5'-3' reverse: [NT], Janus Kinase 1 transcript variant a (JAK1tva) (5'-3' forward: [NT], 5'-3' reverse: [NT], JAK1tvb (5'-3' forward: [NT], 5'-3' reverse: [NT], JAK1tvc (5'-3' forward: [NT], 5'-3' reverse: [NT] Receptor Associated Factor 2 (TRAF2) tvb (5'-3' forward: [NT], 5'-3' reverse: […]2tvc (5'-3' forward: [NT], 5'-3' reverse: [NT] and nuclear factor κB (NF-κB) RelA (forward 5'-3': [NT], reverse 5'-3': […]

[4] = after oral administration of 200 mg ref 52, 53; cited from earlier work
in vitro [5] = details: human, not told, permeability coefficient, without probenecid
[6] = test system: COX-1 and COX-2 protein in TR146 cells; assay: Western blot for COX-1 and COX-2 after inflammation study; format: cell-based, human; details: 48 h treatment
PC3 cells = details: 1500 µM for 24 h ref 60; cited from earlier work
[7] = test system: oral mucosa epithelium in vitro model based on human cell line TR146; assay: Transport study across oral mucosa Transwell model, apical to basolateral, 240 min; details: for permeability coefficient: mean ± SEM
Experimental: (§1) As soon as cells reached confluency, cultivation was switched from submerged to airlift and 1% Human Keratinocytes Growth Supplements (HKGS, Gibco, Thermofisher, Vienna, Austria, S0015) was added to the cultivation media on the basolateral compartment. Media were changed every 2–3 days until the day of experiment on day 29. Cells from passage 14–36 were used for experiments. Transepithelial electric resistance (TEER) was measured on day of experiment, as described in detail previously.
(§2) Solutions were diluted to 10 µM (carboxyfluorescein) or 100 µM in DMEM on day of experiments.
(§3) First, TEER was measured in cultivation media on the day of experiment. Afterwards, cells and blanks were washed twice with DMEM on the apical (300 µL) and basolateral (900 µL) compartments and selected cells and blanks were treated with DMEM with or without 100 µM probenecid or verapamil on the apical and basolateral side at 37 °C for 30 min. […] To cells which were pre-incubated with probenecid or verapamil, 100 µM probenecid or verapamil was applied apically as well. DMSO content was adapted for cells with no inhibitors, and DMSO and dd-H2O content was adjusted in the basolateral compartment as well in order to apply the same vehicle concentrations on the apical and basolateral compartment. […] Subsequently, duplicates of apical sample were collected, and samples were frozen at −80 °C until further analysis with High-Performance Liquid Chromatography (HPLC).
(§4) Peaks were quantified using the software Chromeleon Version 7.2.6, and corresponding mili absorbance unit × time [mAU × min] values were used for data analysis.
(§5) Mean values of relative fluorescence unit (RFU) or detected area [mAU × min] were used for calculation. For the first timepoint, the clearance [µL] for the detected area was calculated as shown in the formula below (1a), with Abasot1 as the measured area [mAU × min] at the first time point of the basolateral sample, Vbaso as the basolateral volume [µL] and Astock as the area measured for the applied stock solution. […] Clearance [µL] for carboxyfluorescein was calculated with the same formulas using RFU. (1a) Clearance=Abasot1×Vbaso/AStock (1b) Clearancetn=Abasotn×Vbaso/AStock−∑(Abasotn−1 ×3− Abasot1 ×3)
(§6) Cleared volume [µL] was calculated by plotting the sum of clearance at all time points over time [min]. The resulting slope PS [µL/min] was calculated inversely. For calculation of the PScell, the inverse PS blanks were subtracted, as shown below in Formula (2). (2) 1/PScell=1/PSall−1/PSblank
(§7) The final permeability coefficient is calculated by dividing the inverse PScell by the area of the ThinCerts (0.336 cm^2) and multiplying by a conversion factor to give the permeability coefficient as µm/min.

in vitro [8] = details: human
Experimental: as §1, §2, §3, §4, §5, §6, §7

[9] = Ibuprofen study, Probenecid, mean ± SD
[10] = Ibuprofen study, Verapamil, mean ± SD
[11] = Ibuprofen study, w/o Inhibitor, mean ± SD

## CC(C)Cc1ccc(C(C)C(=O)O)cc1 (centres unmarked) [ibuprofen]
TR146 cell layers [1]; cells treated with cytokines
  regulation of permeability with or without probenecid: no distinct regulation
TR146 cell layers [1]; cells treated with ibuprofen previously
  higher permeability by addition of probenecid: 52.64%
TR146 cell layers [1]; control group
  higher permeability by addition of probenecid: 42.46%
TR146 cell layers [2]
  TEER values after 48 h: 69.65 ± 9.10 Ω × cm^2
[3]; 100 µM ibuprofen with inflammatory cytokines, p < 0.05
  RELA mRNA expression: inhibit the increase in RELA
[3]; cytokines 100 ng/mL each, ibuprofen 100 µM added during inflammation
  JAK1 and TRAF2 mRNA expression: did not block the upregulation
[4]
  plasma concentration: 116 to 142.5 µM
In vitro [5]; cell layers pre-treated with cytokines 48 h, 4 h transport
  Papp A→B at 4 h: 33.4 ×10⁻⁶ cm/s
In vitro [5]; cell layers pre-treated with cytokines plus ibuprofen 48 h, 4 h transport
  Papp A→B at 4 h: 35.1 ×10⁻⁶ cm/s
In vitro [5]; control cell layers, 4 h transport after 48 h
  Papp A→B at 4 h: 24 ×10⁻⁶ cm/s
[6]
  COX-2 protein expression: no up-regulation of COX-2
PC3 cells
  COX-2 expression: upregulation of COX-2
[7]; [9]
  PS all (cell + blank): 0.12 ± 0.03 µL/min
  PS cell: 0.26 ± 0.11 µL/min
[7]; [10]
  PS all (cell + blank): 0.11 ± 0.01 µL/min
  PS cell: 0.24 ± 0.04 µL/min
[7]; [11]
  PE (permeability of cell + blank): 2.94 ± 0.3 µm/min
  PS all (cell + blank): 0.1 ± 0.01 µL/min
  PS cell: 0.19 ± 0.05 µL/min
[7]; Table S3, mean ± SD
  Permeability coefficient without inflammation and inhibitor: 5.77 ± 1.48 µm/min
[7]; human, 240 min
  PE (permeability of cell + blank): 3.47 ± 0.76 µm/min
[7]; human, 240 min, 100 µM
  increase of permeability coefficient with probenecid compared to no inhibitor: 1.36 fold
  increase of permeability coefficient with verapamil compared to no inhibitor: 1.23 fold
[7]; human, 4 h, 100 µM
  cumulated concentration of NSAID in the basolateral compartment: 0.067 ± 0.0078 nmol/mm^2
[7]; with 100 µM probenecid
  permeability coefficient: 7.87 ± 1.32 µm/min
[7]; with 100 µM verapamil
  permeability coefficient: 7.13 ± 0.51 µm/min
[7]; without inhibitor, 100 µM apical (CF 10 µM)
  permeability coefficient: 5.77 ± 0.60 µm/min
In vitro [8]; PC (permeability of cell)
  Papp A→B at 240 min: 13.1 ×10⁻⁶ cm/s
In vitro [8]; PE (permeability of cell + blank)
  Papp A→B at 240 min: 5.45 ×10⁻⁶ cm/s
